Literature values in patent US20250231185A1, “Coronavirus T Cell Epitopes, Megapools and Uses Thereof” (La Jolla Institute for Immunology, priority 2021, published 2025).

System: CD8+ T cells
Conditions: CD8R (D) megapool epitopes; dominant = recognized by 3 or more donors/different studies; cited from earlier work
For 1766 (SAPPAQYEL) [compound 1766], the Dominant is given as “Yes (more dominant epitopes are defined by being recognized by 3 or more donors/different studies)”. In the case of 1814 (VFITLCFTLK) [compound 1814], the Dominant is listed as “Yes (more dominant epitopes are defined by being recognized by 3 or more donors/different studies)”. For 1704 (MEVTPSGTW) [compound 1704], the Dominant is listed as “Yes (more dominant epitopes are defined by being recognized by 3 or more donors/different studies)”. For 1753 (MLWCKDGHV) [compound 1753], the Dominant is given as “Yes (more dominant epitopes are defined by being recognized by 3 or more donors/different studies)”. In the case of 1802 (IPIQASLPF) [compound 1802], the Dominant is given as “Yes (more dominant epitopes are defined by being recognized by 3 or more donors/different studies)”. For 1713 (DLKGKYVQI) [compound 1713], the Dominant is given as “Yes (more dominant epitopes are defined by being recognized by 3 or more donors/different studies)”. For 1765 (YLATALLTL) [compound 1765], the Dominant is given as “Yes (more dominant epitopes are defined by being recognized by 3 or more donors/different studies)”. In the case of 1701 (AQFAPSASAF) [compound 1701], the Dominant is listed as “Yes (more dominant epitopes are defined by being recognized by 3 or more donors/different studies)”. In the case of 1718 (FVDGVPFVV) [compound 1718], the Dominant is given as “Yes (more dominant epitopes are defined by being recognized by 3 or more donors/different studies)”.

Same assay, conditions: CD8RE megapool peptides (non-spike SARS-CoV-2 antigens); dominant epitope Yes/No; cited from earlier work
For 2937 (ASAFFGMSR) [compound 2937], the Dominant is given as “Yes (more dominant epitopes are defined by being recognized by 3 or more donors/different studies)”. In the case of 2905 (FLFLTWICL) [compound 2905], the Dominant is given as “Yes (more dominant epitopes are defined by being recognized by 3 or more donors/different studies)”. In the case of 3040 (YLYALVYFL) [compound 3040], the Dominant is listed as “Yes (more dominant epitopes are defined by being recognized by 3 or more donors/different studies)”. For 2958 (MVMCGGSLYV) [compound 2958], the Dominant is given as “Yes (more dominant epitopes are defined by being recognized by 3 or more donors/different studies)”. For 2987 (LLLDDFVEII) [compound 2987], the Dominant is listed as “Yes (more dominant epitopes are defined by being recognized by 3 or more donors/different studies)”. In the case of 2906 (NRFLYIIKL) [compound 2906], the Dominant is given as “Yes (more dominant epitopes are defined by being recognized by 3 or more donors/different studies)”. In the case of 2914 (ATSRTLSYYK) [compound 2914], the Dominant is listed as “Yes (more dominant epitopes are defined by being recognized by 3 or more donors/different studies)”. In the case of 2998 (QEILGTVSW) [compound 2998], the Dominant is given as “Yes (more dominant epitopes are defined by being recognized by 3 or more donors/different studies)”. In the case of 2932 (QQQQGQTVTK) [compound 2932], the Dominant is listed as “Yes (more dominant epitopes are defined by being recognized by 3 or more donors/different studies)”.

Same assay, conditions: SARS-CoV-2 Ag S; T cell type recognizing the epitope; cited from earlier work
In the case of 1301 (VGGNYNYLY) [compound 1301], the Restriction is listed as “CD8”. In the case of 1339 (RVYSTGSNVF) [compound 1339], the Restriction is listed as “CD8”. In the case of 1438 (GVFVSNGTHW) [compound 1438], the Restriction is given as “CD8”. For 1394 (IPFAMQMAY) [compound 1394], the Restriction is given as “CD8”.

Same assay, conditions: T cell subset (CD4 or CD8) recognizing the SARS-CoV-2-derived epitope; cited from earlier work
For 561 (VMVELVAEL) [compound 561], the Restriction is listed as “CD8”. In the case of 635 (KLMPVCVET) [compound 635], the Restriction is given as “CD8”. In the case of 615 (AVFDKNLYDK) [compound 615], the Restriction is listed as “CD8”. In the case of 581 (APKEIIFL) [compound 581], the Restriction is listed as “CD8”. In the case of 505 (AGLPYGANK) [compound 505], the Restriction is listed as “CD8”.

Same assay, conditions: T cell type (CD4 or CD8) recognizing the SARS-CoV-2 epitope; cited from earlier work
In the case of 912 (SDGTGTIY) [compound 912], the Restriction is given as “CD8”. In the case of 994 (FVNEFYAYL) [compound 994], the Restriction is listed as “CD8”. For 986 (IMASLVLAR) [compound 986], the Restriction is listed as “CD8”. In the case of 950 (KIFVDGVPFV) [compound 950], the Restriction is listed as “CD8”. For 1060 (KIEELFYSY) [compound 1060], the Restriction is given as “CD8”. For 953 (VVSTGYHFR) [compound 953], the Restriction is listed as “CD8”. For 935 (VENPDILRVY) [compound 935], the Restriction is listed as “CD8”. For 942 (KPYIKWDLL) [compound 942], the Restriction is listed as “CD8”.
